In paper PMC6829278, “Suitability of GnRH Receptors for Targeted Photodynamic Therapy in Head and Neck Cancers” (International Journal of Molecular Sciences, 2019):
Where two headings read alike, the source gives them in different places. Values belong to the compound of their own block, whether it stands above or below them. Square brackets hold non-standard residues; d marks the D form. Peptide text beside a SMILES is read from it. * marks the point of attachment. X1 = C=CC1=C(C)c2cc3[nH]c(cc4nc(cc5[nH]c(cc1n2)c(C)c5CCC(=O)O)C(CCC(=O)*)=C4C)c(C)c3C=C; pGlu = O=C1CC[C@@H](C(=O)O)N1; Butyryl = CCCC(=O)*

What was measured:
[1] = molecular target: T1, GnRH-R (membranes of human pituitary) (Homo sapiens, UniProt P30968); experiment: Radioligand binding (ligand competition) assay, displacement of [125I]-[6D-Trp]-GnRH-I, human pituitary membranes; conditions: for Inhibition of the binding of [125I]-[6D-Trp]-GnRH-I: at a concentration of 10^-6 M, tissue (human pituitary / human prostate cancer) not specified
T1 construct: Tissue samples derived by autopsy from normal human pituitary (anterior lobe); from tissue; host or cells: normal human pituitary (anterior lobe), autopsy; membrane homogenates
T1 sequence (P30968 1-328): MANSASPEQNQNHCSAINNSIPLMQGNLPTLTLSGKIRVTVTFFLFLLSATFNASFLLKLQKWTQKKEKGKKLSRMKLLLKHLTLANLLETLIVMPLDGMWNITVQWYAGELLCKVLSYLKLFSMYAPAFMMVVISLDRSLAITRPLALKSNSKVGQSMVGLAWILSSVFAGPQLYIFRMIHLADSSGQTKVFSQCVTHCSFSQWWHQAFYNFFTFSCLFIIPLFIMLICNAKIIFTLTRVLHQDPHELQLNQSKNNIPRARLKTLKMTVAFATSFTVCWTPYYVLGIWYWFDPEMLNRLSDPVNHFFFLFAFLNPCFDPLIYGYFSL
Source text: (§1) The binding potency of the GnRH analogs and the GnRH-PpIX conjugates to human pituitary and human prostate cancer cells, that express GnRH-R in high concentration, was investigated by ligand competition assay.
(§2) Tissue samples derived by autopsy from normal human pituitary (anterior lobe) and human prostate cancer cells were obtained from a patient at the time of initial surgical treatment. The collection and the use of these specimens for our studies are approved by the local Institutional Ethics Committee. […] The assay was performed as described earlier. […] At the end of the incubation, 125 µL aliquots of suspension were transferred onto the top of 1 mL of ice-cold binding buffer containing 1.5% BSA in microcentrifuge tubes. The tubes were centrifuged at 12,000× g for 3 min at 4 °C. Supernatants were aspirated and the pellet was counted in a gamma counter. Protein concentration was determined by the method of Bradford, using a Bio-Rad protein assay kit (Bio-Rad Laboratories, Hercules, CA, USA). The LIGAND-PC computerized curve-fitting program of Munson and Rodbard was used to determine the receptor binding characteristics and IC50 values.

[2] = system: Detroit-562 human pharyngeal carcinoma cells; experiment: cells; conditions: for Effect of incubation time on cell viability inhibition: incubation 1, 3 or 5 h
Method: (compound 5) was used for the optimization of the conditions of the cell viability inhibition assays. First, the irradiation time was optimized. Detroit-562 pharyngeal cells were treated with the peptide-PpIX conjugate for 5 h, the unbound conjugate was washed out, and then the cells were irradiated for 0, 2, 10, or 30 min followed by 72 h of further incubation (Figure 6A).
Afterwards, the incubation time was optimized.
The cell viability inhibition of the synthesized GnRH-PpIX conjugates was measured on Detroit-562 cells using the previously optimized conditions (5 h treatment, 10 min irradiation).
Cells were seeded to 96-well plates (6·× 10^3 cells/well) 48 h prior to the treatment. The cells were treated with the peptides (10 μM) and conjugates (0.025–10 μM) in darkness. Stock solutions of the compounds were prepared in DMSO (5 mM) and all dilutions were made to contain 0.2% DMSO final concentration. The control wells were treated with medium or 0.2% DMSO containing medium. After 1, 3, or 5 h, the cells were washed once with medium, irradiated for 0, 2, 10, or 30 min and incubated for a further 72 h. The irradiation was performed by an Oriel type 250 W Quartz Tungsten Halogen lamp (Newport Corporation, CA, USA) with a 550 nm emission maximum. The light was filtered to exclude UV and IR components. The fluence rate was determined by a 10 A-P Nova laser power/energy monitor (Ophir, Optronix, Jerusalem, Israel) using the pyro-electric detector. Then, the MTT-test was performed according to the manufacturer’s instructions. Each point was measured using 3 parallels and each experiment was repeated twice.

[3] = molecular target: T2, GnRH-R (membranes of human prostate cancer cells) (Homo sapiens, UniProt P30968); experiment: Radioligand binding (ligand competition) assay, displacement of [125I]-[6D-Trp]-GnRH-I, human prostate cancer membranes
T2 construct: human prostate cancer cells were obtained from a patient at the time of initial surgical treatment; from tissue; host or cells: human prostate cancer specimen from a patient at surgery; membrane homogenates
T2 sequence (P30968 1-328): T1 sequence (P30968 1-328)
Source text: as §1, §2

[4] = Detroit-562, 10 min irradiation
[5] = membranes of human pituitary, read-out: IC50 Values, inhibition of [125I]-[6D-Trp]-GnRH-I binding, Human Pituitary
[6] = membranes of human prostate cancer cells, read-out: IC50 Values, inhibition of [125I]-[6D-Trp]-GnRH-I binding, Human Prostate Cancer
[7] = Detroit-562, 0.1 µM, 5 h treatment, 10 min irradiation

IC50 [1, 5]: 9.7 ± 1.07 nM
IC50 [3, 6]: 8.61 ± 1.08 nM
Compound: CCCC(=O)NCCCC[C@H](NC(=O)[C@H](Cc1c[nH]c2ccccc12)NC(=O)[C@H](Cc1c[nH]cn1)NC(=O)[C@@H]1CCC(=O)N1)C(=O)N[C@@H](Cc1ccc(O)cc1)C(=O)N[C@H](CCCCN)C(=O)N[C@@H](CC(C)C)C(=O)N[C@@H](CCCNC(=N)N)C(=O)N1CCC[C@H]1C(=O)NCC(N)=O [compound 2, GnRH-I[^4Lys(Bu), ^6D-Lys]] ([pGlu]HWK(Butyryl)Y[dK]LRPG-NH2)

IC50 [1, 5]: 5.56 ± 1.07 nM
IC50 [3, 6]: 4.65 ± 0.31 nM
Compound: CCCC(=O)NCCCC[C@H](NC(=O)[C@H](Cc1c[nH]c2ccccc12)NC(=O)[C@H](Cc1c[nH]cn1)NC(=O)[C@@H]1CCC(=O)N1)C(=O)N[C@@H](Cc1c[nH]cn1)C(=O)N[C@H](CCCCN)C(=O)N[C@@H](Cc1c[nH]c2ccccc12)C(=O)N[C@@H](Cc1ccc(O)cc1)C(=O)N1CCC[C@H]1C(=O)NCC(N)=O [compound 3, GnRH-II[^4Lys(Bu), ^6D-Lys]] ([pGlu]HWK(Butyryl)H[dK]WYPG-NH2)

IC50 [1, 5]: 7.27 ± 0.92 nM
IC50 [3, 6]: 6.56 ± 1.11 nM
Compound: CCCC(=O)NCCCC[C@H](NC(=O)[C@H](Cc1c[nH]c2ccccc12)NC(=O)[C@H](Cc1c[nH]cn1)NC(=O)[C@@H]1CCC(=O)N1)C(=O)N[C@@H](Cc1c[nH]cn1)C(=O)N[C@@H](CC(=O)OC)C(=O)N[C@@H](Cc1c[nH]c2ccccc12)C(=O)N[C@@H](CCCCN)C(=O)N1CCC[C@H]1C(=O)NCC(N)=O [compound 4, GnRH-III[^4Lys(Bu), ^6Asp(OMe)]]

IC50 [1, 5]: 42.3 ± 4.27 nM
IC50 [3, 6]: 41.8 ± 5.74 nM
IC50 ([2]; 5 h): 89.8 ± 19.4 nM
Compound: C=CC1=C(C)c2cc3[nH]c(cc4nc(cc5[nH]c(cc1n2)c(C)c5CCC(=O)O)C(CCC(=O)NCCCC[C@@H](NC(=O)[C@H](Cc1ccc(O)cc1)NC(=O)[C@H](CCCCNC(=O)CCC)NC(=O)[C@H](Cc1c[nH]c2ccccc12)NC(=O)[C@H](Cc1c[nH]cn1)NC(=O)[C@@H]1CCC(=O)N1)C(=O)N[C@@H](CC(C)C)C(=O)N[C@@H](CCCNC(=N)N)C(=O)N1CCC[C@H]1C(=O)NCC(N)=O)=C4C)c(C)c3C=C [compound 6, GnRH-I[^4Lys(Bu), ^6D-Lys(PpIX)]] ([pGlu]HWK(Butyryl)Y[dK](X1)LRPG-NH2)
Cell viability inhibition [2, 7]: 65–70%

Inhibition of the binding of [125I]-[6D-Trp]-GnRH-I [1]: did not inhibit
Compound: EGF: peptide used as binding specificity control [reference compound]

Inhibition of the binding of [125I]-[6D-Trp]-GnRH-I [1]: did not inhibit
Compound: IGF-I: peptide used as binding specificity control [reference compound]

Inhibition of the binding of [125I]-[6D-Trp]-GnRH-I [1]: did not inhibit
Compound: VIP: peptide used as binding specificity control [reference compound]

Inhibition of the binding of [125I]-[6D-Trp]-GnRH-I [1]: did not inhibit
Compound: hGHRH: peptide used as binding specificity control [reference compound]

Second part, the compound before the results:

Compound: C=CC1=C(C)c2cc3[nH]c(cc4nc(cc5[nH]c(cc1n2)c(C)c5CCC(=O)O)C(CCC(=O)O)=C4C)c(C)c3C=C [PpIX, Protoporphyrin IX, reference compound]
Inhibition of the binding of [125I]-[6D-Trp]-GnRH-I [1]: did not inhibit
Cell viability inhibition ([2]; Detroit-562, 0.25 µM, 5 h treatment, 10 min irradiation): ~ 50%
Effect of incubation time on cell viability inhibition [2, 4]: no significant difference
IC50 ([2]; Homo sapiens, Detroit 562, light or radiation study, read-out: Calculated IC50 values, cell viability inhibition): 209 ± 120 nM

Compound: C=CC1=C(C)c2cc3[nH]c(cc4nc(cc5[nH]c(cc1n2)c(C)c5CCC(=O)O)C(CCC(=O)NCCCC[C@@H](NC(=O)[C@H](Cc1ccc(O)cc1)NC(=O)[C@H](CO)NC(=O)[C@H](Cc1c[nH]c2ccccc12)NC(=O)[C@H](Cc1c[nH]cn1)NC(=O)[C@@H]1CCC(=O)N1)C(=O)N[C@@H](CC(C)C)C(=O)N[C@@H](CCCNC(=N)N)C(=O)N1CCC[C@H]1C(=O)NCC(N)=O)=C4C)c(C)c3C=C [compound 5, GnRH-I[^6D-Lys(PpIX)]]
IC50 [1, 5]: 36.3 ± 3.17 nM
IC50 [3, 6]: 42.7 ± 7.04 nM
IC50 ([2]; 5 h): 62.3 ± 5.9 nM
Cell viability inhibition [2, 7]: > 90%
Cell viability inhibition (irradiation time optimization) [2, 7]: ~ 98%
Cell viability inhibition (irradiation time optimization) ([2]; Detroit-562, 0.1 µM, 5 h treatment, 30 min irradiation): ~ 98%
Toxicity in the absence of light ([2]; Detroit-562, 5 h treatment, 0 min irradiation, 72 h further incubation): non-toxic
Cell viability inhibition ([2]; Detroit-562, 5 h treatment, 2 min irradiation, sub-micromolar concentration): 50%
Effect of incubation time on cell viability inhibition [2, 4]: higher activity

Compound: C=CC1=C(C)c2cc3[nH]c(cc4nc(cc5[nH]c(cc1n2)c(C)c5CCC(=O)O)C(CCC(=O)NCCCC[C@@H](NC(=O)[C@H](Cc1c[nH]cn1)NC(=O)[C@H](CCCCNC(=O)CCC)NC(=O)[C@H](Cc1c[nH]c2ccccc12)NC(=O)[C@H](Cc1c[nH]cn1)NC(=O)[C@@H]1CCC(=O)N1)C(=O)N[C@@H](Cc1c[nH]c2ccccc12)C(=O)N[C@@H](Cc1ccc(O)cc1)C(=O)N1CCC[C@H]1C(=O)NCC(N)=O)=C4C)c(C)c3C=C [compound 7, GnRH-II[^4Lys(Bu), ^6D-Lys(PpIX)]] ([pGlu]HWK(Butyryl)H[dK](X1)WYPG-NH2)
IC50 [1, 5]: 79.4 ± 8.88 nM
IC50 [3, 6]: 84.5 ± 10.3 nM
IC50 ([2]; 5 h): 71.1 ± 6.2 nM
Cell viability inhibition [2, 7]: > 90%

Compound: C=CC1=C(C)c2cc3[nH]c(cc4nc(cc5[nH]c(cc1n2)c(C)c5CCC(=O)O)C(CCC(=O)NCCCC[C@H](NC(=O)[C@H](Cc1c[nH]c2ccccc12)NC(=O)[C@H](CC(=O)OC)NC(=O)[C@H](Cc1c[nH]cn1)NC(=O)[C@H](CCCCNC(=O)CCC)NC(=O)[C@H](Cc1c[nH]c2ccccc12)NC(=O)[C@H](Cc1c[nH]cn1)NC(=O)[C@@H]1CCC(=O)N1)C(=O)N1CCC[C@H]1C(=O)NCC(N)=O)=C4C)c(C)c3C=C [compound 8, GnRH-III[^4Lys(Bu), ^6Asp(OMe), ^8Lys(PpIX)]]
IC50 [1]: 289 ± 17.3 nM
IC50 [3]: 341 ± 21.1 nM
Cell viability inhibition [2, 7]: 65–70%
IC50 ([2]; read-out: Calculated IC50 values, cell viability inhibition, Detroit-562 cells, 5 h incubation, 10 min irradiation, further 72 h, MTT): 81.8 ± 12.6 nM

Compound: glucagon: peptide used as binding specificity control [reference compound]
Inhibition of the binding of [125I]-[6D-Trp]-GnRH-I [1]: did not inhibit

Compound: somatostatin-14: peptide structurally and/or functionally unrelated to GnRH, binding specificity control [reference compound]
Inhibition of the binding of [125I]-[6D-Trp]-GnRH-I [1]: did not inhibit
